12 compounds from ChEMBL document CHEMBL1201862, “PubChem BioAssay data set” (2004) can be followed below.

Structures are written as SMILES.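 Cells were grown in 96-well plates and exposed to each compound for 48 hours at five concentrations; endpoints were interpolated linearly between bracketing concentrations, or set to the highest concentration if not reached. GI50 = concentration required for 50% inhibition of growth.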 Calls of active or inactive are those of the source. Cut-off read from the data, not from the text of the source: active = GI50 up to about 1.1 µM and inactive = higher.

What all share (test): NCI-60 cell line screen, 48 h
The subject of test [1] is UO-31.
The test system of test [2] is HOP-62.
Test [3] deals with SF-539.
The subject of test [4] is SN12C.
Test [5] concerns SNB-75.
Test [6] deals with K562.
Test [7] has as its system SF-268.
Test [8] deals with SK-MEL-28.
Test [9] relates to U-251.
Test [10] deals with M14.
Test [11] relates to SR.
Test [12] deals with NCI-H460.
The subject of test [13] is HCC 2998.
For test [14], the system named is NCI-H23.
Test [15] has as its system UACC-257.
Test [16] deals with RXF 393.
Test [17] has as its system OVCAR-4.
For test [18], the system named is MDA-N.
The test system of test [19] is MDA-MB-231.

For `Cc1cccc2c1c1ccc3c(c1n2C)C(=O)C=CC3=O`, the GI50 was 3.4 µM (inactive) in test [1]; 19 µM (inactive) in test [2]; 4.56 µM (inactive) in [3]; 6.17 µM (inactive) in test [4]; 19.5 µM (inactive) in test [5]; 1.95 µM (inactive) in test [6]. For the same compound, the GI50 in test [7] is 14 µM (inactive); in test [8], 9.71 µM (inactive); in test [9], 10.3 µM (inactive); in test [10], 6.22 µM (inactive); in test [11] it was 1.43 µM (inactive); in test [12], 17.3 µM (inactive). In addition, the GI50 was 18.2 µM (inactive) in test [13]; 13.5 µM (inactive) in test [14]; 11.4 µM (inactive) in test [15]; 3.48 µM (inactive) in [16]; 11.8 µM (inactive) in test [17].

Take `CC(=O)CC(=O)Nc1ccc(OS(N)(=O)=O)cc1`: the GI50 in test [1], in test [2], in [3], in [4], in test [5] and in test [6] was > 100 µM (inactive) throughout. In addition, the GI50 in test [7], in test [8], in [9], in test [10], in test [11] and in test [12] was > 100 µM (inactive) throughout. Also, the GI50 in test [13], in test [14], in test [15], in test [16] and in test [17] was > 100 µM (inactive) each time.

As to `Cc1ccc2nc(N/N=C/c3ccc(C)s3)cc(C)c2c1`, the GI50 in test [1] is 9.82 µM (inactive); in test [2] it was 15.7 µM (inactive); in [18] it was 7.8 µM (inactive); in [3] it was 11 µM (inactive); in test [4], 12.7 µM (inactive); in [5], > 10 µM (inactive). Besides, the GI50 in [19] is 16.1 µM (inactive); in test [6] it was 3.99 µM (inactive); in test [7], 11.6 µM (inactive); in [8], 6.76 µM (inactive); in [9] it was 9.51 µM (inactive); in test [10] it was 10.2 µM (inactive). Besides, the GI50 in [11] is 19.7 µM (inactive); in test [13], 4.69 µM (inactive); in test [14], 7.98 µM (inactive); in [15], 5.56 µM (inactive); in test [16], 13.3 µM (inactive); in [17], 10.3 µM (inactive).

Take `C[C@]12CC[C@H](O)CC1=CC[C@@H]1C2CC[C@]2(C)C(=O)NC(=O)CC12` (some centres undefined): the GI50 in [1] was > 100 µM (inactive); in test [2], > 100 µM (inactive); in test [3], > 100 µM (inactive); in test [4], 69 µM (inactive); in test [5] it was > 100 µM (inactive); in test [6], 29 µM (inactive). The GI50 in test [7] is 65.9 µM (inactive); in test [8], > 100 µM (inactive); in test [9] it was > 100 µM (inactive); in test [10], > 100 µM (inactive); in test [11] it was 37.2 µM (inactive); in [12], 48.6 µM (inactive). Further, the GI50 in [13], in test [14], in test [15], in [16] and in test [17] was > 100 µM (inactive) each time.

For `C=C(c1ccccc1)[C@@]1(O)CCCC[C@H]1NC(c1ccccc1)c1ccccc1`, the GI50 was 14.5 µM (inactive) in test [1]; 15.1 µM (inactive) in test [2]; 15.9 µM (inactive) in test [3]; 14 µM (inactive) in test [4]; 28.2 µM (inactive) in test [5]; 7.69 µM (inactive) in test [6]. Further, the GI50 in [7] was 13.6 µM (inactive); in [8], 15.5 µM (inactive); in test [9], 10.7 µM (inactive); in test [10] it was 14 µM (inactive); in test [11], 1.7 µM (inactive); in test [12] it was 13 µM (inactive). Also, the GI50 is 12.6 µM (inactive) in [13]; 8.3 µM (inactive) in test [14]; 10.5 µM (inactive) in [15]; 7.89 µM (inactive) in test [16]; 14.1 µM (inactive) in test [17].

As to `COc1ccc(Cn2c(C)nc3c2C(=O)c2ccccc2C3=O)cc1`, the GI50 was 10.5 µM (inactive) in test [1]; 11.6 µM (inactive) in [2]; 3.81 µM (inactive) in [3]; 13.9 µM (inactive) in test [4]; 11.2 µM (inactive) in test [5]; 3.2 µM (inactive) in [6]. Moreover, the GI50 in [7] was 4.49 µM (inactive); in [8], 21 µM (inactive); in test [9] it was 6.32 µM (inactive); in [10] it was 11.6 µM (inactive); in test [11] it was 1.44 µM (inactive); in [12] it was 2.38 µM (inactive). The GI50 in [13] is 18.8 µM (inactive); in [14] it was 7 µM (inactive); in test [15], 10.4 µM (inactive); in test [16], 14 µM (inactive); in test [17] it was 15.5 µM (inactive).

Turning to `COc1cc(/C=C2\CCC(C)C3=C2NC(=S)NC3c2cc(OC)c(OC)c(OC)c2)cc(OC)c1OC` (centres undefined), the GI50 in test [1] was 15.8 µM (inactive); in [2] it was 70.6 µM (inactive); in [18], 43.1 µM (inactive); in test [4] it was 68.4 µM (inactive); in test [5], 25.6 µM (inactive); in test [19] it was 34.5 µM (inactive). The GI50 in test [6] is 26.1 µM (inactive); in test [7] it was 73.6 µM (inactive); in test [8], 30.4 µM (inactive); in [9], 46.8 µM (inactive); in test [10], 60.3 µM (inactive); in test [11], 25.2 µM (inactive). The GI50 is 53.8 µM (inactive) in test [15], 34.1 µM (inactive) in [16] and 69 µM (inactive) in [17].

On to `COc1ccc2[nH]c3c([N+](=O)[O-])ccc(NCCCN(C)C)c3/c(=N/CCCN(C)C)c2c1`, for which the GI50 in [2] was 1.4 µM (inactive); in test [4] it was 1.35 µM (inactive); in [5] it was 1.84 µM (inactive); in test [19], 1.5 µM (inactive); in test [6], 1.42 µM (inactive); in test [7] it was 1.64 µM (inactive). In addition, the GI50 is 1.89 µM (inactive) in test [8]; > 10 µM (inactive) in test [10]; 0.28 µM (active) in test [11]; 1.24 µM (inactive) in [13]; 1.56 µM (inactive) in [14]; > 10 µM (inactive) in test [15]. For the same compound, the GI50 in [16] was 0.631 µM (active); in test [17], 0.914 µM (active).

Regarding `CC(=S)NNC(=O)c1ccncc1`, the GI50 in test [1], in test [2], in [3], in test [4], in test [5] and in test [6] was > 100 µM (inactive) each time. Also, the GI50 in test [7], in test [8], in test [9], in test [10], in test [11] and in [12] was > 100 µM (inactive) throughout. Moreover, the GI50 in [13], in test [14], in [15], in [16] and in test [17] was > 100 µM (inactive) in each case.

For the compound `Cc1ccc(S(=O)OC23CC4CC(CC(C4)C2)C3)cc1` (centres undefined), the GI50 was 41.2 µM (inactive) in test [1]; > 100 µM (inactive) in test [2]; > 100 µM (inactive) in test [3]; > 100 µM (inactive) in [4]; 69.5 µM (inactive) in test [5]; > 100 µM (inactive) in test [6]. Besides, the GI50 in test [7] is 86.1 µM (inactive); in test [8], > 100 µM (inactive); in [9], 36.8 µM (inactive); in [10], > 100 µM (inactive); in [11], 35.7 µM (inactive); in test [12], > 100 µM (inactive). For the same compound, the GI50 in test [13] is > 100 µM (inactive); in [14], > 100 µM (inactive); in test [15], > 100 µM (inactive); in test [16], 70.1 µM (inactive); in test [17] it was > 100 µM (inactive).

With `COc1cc(/C=C2\[C@@H]3NC(Cc4c(OC)c(C)c(OC)c(OC)c43)C(=O)N2Cc2ccccc2)c(OC)c(C)c1OC`, the GI50 in test [1] was 27 µM (inactive); in test [2] it was 54.1 µM (inactive); in [3] it was 66.4 µM (inactive); in test [4], 40.3 µM (inactive); in test [5], 27.7 µM (inactive); in [6], 34.3 µM (inactive). In addition, the GI50 in test [7] is 59.3 µM (inactive); in [8] it was 60.7 µM (inactive); in test [9], 35.2 µM (inactive); in test [10] it was 31.3 µM (inactive); in [11], 25 µM (inactive); in [12], 21.6 µM (inactive). In addition, the GI50 in test [13] is 38.6 µM (inactive); in test [14] it was 49.7 µM (inactive); in test [15], 34.7 µM (inactive); in test [16], 23 µM (inactive); in test [17], 32.3 µM (inactive).

In the case of `COc1cccc2c1NC(=O)Cc1c-2[nH]c2ccccc12`, the GI50 in test [1] was > 100 µM (inactive); in test [2], > 100 µM (inactive); in test [3] it was > 100 µM (inactive); in [5] it was > 100 µM (inactive); in [19] it was > 100 µM (inactive); in test [6] it was 53.1 µM (inactive). The GI50 in [7] is > 100 µM (inactive); in test [8], 30.8 µM (inactive); in test [9], > 100 µM (inactive); in test [10], > 100 µM (inactive); in [11] it was > 100 µM (inactive); in [12], 35.1 µM (inactive). Also, the GI50 was > 100 µM (inactive) in test [13], 81.5 µM (inactive) in test [14], > 100 µM (inactive) in [16] and 98.2 µM (inactive) in [17].
